Experimental data reported in patent publication US20100076092A1, “LIPID-DERIVED NANOPARTICLES FOR BRAIN-TARGETED DRUG DELIVERY” (priority 2006, published 2010).

Assay: Biodistribution / brain delivery of drug in mice after intravenous drug-loaded nanoparticles
Format: in vivo
Details: mouse, BMS, 12 mg/kg intravenously through tail vein in mice, HPLC, mean±SD (n=6), read-out: drug levels in the brain
Method: The brain delivery of BMS was assessed one hour following intravenous administration of brain lipid-coated nanoparticles in mice (FIG. 1). BMS in nanoparticles with or without brain-derived lipids or equivalent amount in solution (12 mg/kg) was injected intravenously in mice through tail vein, and drug levels in different tissues at the end of 1 hr was analyzed by HPLC. Data as mean±SD (n=6). * p<0.05. […] Data as mean±SD (n=4 and 3). * p<0.05.

Cc1noc(NS(=O)(=O)c2cccc3c(N(C)C)cccc23)c1C [solution control, BMS 182874]
concentration at 1 h: 2360 ± 580 ng/g
